Reference: patent US20040053424A1, “Continuous-flow homogeneous biochemical assays based on mass spectrometric detection of known ligands” (priority 2000, published 2004)

Assays:
[1] = system: fab fragments of anti-digoxigenin antibodies (fab anti-digoxigenin); test: homogeneous on-line mass spectrometric biochemical assay, fab anti-digoxigenin / digoxigenin reporter; format: binding; details: 100 nmol/l fab anti-digoxigenin, 200 nmol/l digoxigenin; FIG. 3, point 4
Method: To a carrier solution consisting of 10 mmol/L ammonium formate/methanol (90:10, v/v) pumped at a flow rate of 50 μl/min a solution of 100 nmol/l fab anti-digoxigenin dissolved in 10 mmol/L ammonium formate was added at a flow rate of 50 μl/min. The mixture was pumped through a knitted 300 μm i.d. poly(tetrafluoroethylene) reaction coil with an internal volume of 65 μl. Subsequently, a solution of 200 nmol/l digoxigenin dissolved in 10 mmol/L ammonium formate/methanol (90:10, v/v) is added at a flow rate of 100 ill/min. The mixture was then pumped through a knitted 300 μm i.d. poly(tetrafluoroethylene) reaction coil with an internal volume of 33 μl and subsequently introduced into a mass spectrometer equipped with an electrospray ionization (ESI) source. Mass spectrometry was operated in selected-ion monitoring (SIM) in the positive-ion (PI) mode on [M+H]+and on one or more intense fragment ions.
At point 1, only carrier buffer was pumped into the mass spectrometer providing a reference background signal. At point 2, the digoxigenin pump was switched on leading to an increase of the selected-ion monitoring MS signal at m/z 408 (the ammonium adduct of digoxigenin). At point 3, the fab anti-digoxigenin pump was switched on.

[2] = target: streptavidin (Streptomyces avidinii, UniProt P22629); test: homogeneous on-line mass spectrometric biochemical assay, streptavidin / fluorescein-biotin reporter; format: binding; details: for effect of analyte injection on binding of reporter fluorescein-biotin to streptavidin (SIM MS signal at m/z 390): equal concentrations injected, 32 nmol/l streptavidin, 96 nmol/l fluorescein-biotin, FIG. 2
Sequence of streptavidin (P22629 25-183): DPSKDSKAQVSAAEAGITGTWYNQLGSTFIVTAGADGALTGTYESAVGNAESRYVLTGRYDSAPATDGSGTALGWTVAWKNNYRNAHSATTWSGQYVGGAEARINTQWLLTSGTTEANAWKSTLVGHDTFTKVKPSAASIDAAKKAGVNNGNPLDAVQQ
Method: Streptavidin is a well-known affinity protein with a high affinity for biotin and biotinylated compounds. To a carrier solution consisting of 10 mmol/L ammonium formate/methanol (90:10, v/v) pumped at a flow rate of 50 μl/min a solution of 32 nmol/l streptavidin dissolved in 10 mmol/L ammonium formate was added at a flow rate of 50 μl/min. The mixture was pumped through a knitted […]. poly(tetrafluoroethylene) reaction coil with an internal volume of 17 μl. Subsequently, a solution of 96 nmol/l fluorescein-biotin dissolved in 10 mmol/L ammonium formate/methanol (90:10, v/v) was added at a flow rate of 100 μl/min. The mixture was then pumped through a knitted […]. poly(tetrafluoroethylene) reaction coil with an internal volume of 33 μl and subsequently introduced into a mass spectrometer equipped with an electrospray ionization (ESI) source. Mass spectrometry was operated in selected-ion monitoring (SIM) in the positive-ion (PI) mode on [M+H]+and on one or more intense fragment ions. The ESI source conditions for the streptavidin/biotin system: source temperature, 80° C.; capillary voltage, 3.2 kV. The sampling cone voltage was 30 and 60 V for biotin and fluorescein-labeled biotin, respectively.
At point 1, only carrier buffer was pumped into the mass spectrometer providing a reference background signal. […] At point 3, the streptavidin pump was switched on.

Compound | effect of analyte injection on binding of reporter fluorescein-biotin to streptavidin (SIM MS signal at m/z 390) [2] | other results
C[C@H]1O[C@@H](O[C@H]2[C@@H](O)C[C@H](O[C@H]3[C@@H](O)C[C@H](O[C@H]4CC[C@@]5(C)[C@H](CC[C@@H]6[C@@H]5C[C@@H](O)[C@]5(C)[C@@H](C7=CC(=O)OC7)CC[C@]65O)C4)O[C@@H]3C)O[C@@H]2C)C[C@H](O)[C@@H]1O [digoxin] |  | effect of injection on free fab anti-digoxigenin binding sites / free digoxigenin concentration (SIM MS signal at m/z 408) [1]: decrease of free fab anti-digoxigenin binding sites and an increase of the free digoxigenin concentration
NNC(=O)CCCCCNC(=O)CCCC[C@@H]1SC[C@@H]2NC(=O)N[C@@H]21 [N-biotinyl-6-aminocaprioc hydrazide] | capable to prevent the binding of the reporter molecule, fluorescein-biotin, to streptavidin | 
fluorescein-biotin |  | effect of adding streptavidin on free reporter ligand (SIM MS signal at m/z 390) ([2]; FIG. 1, point 3): decrease of the concentration of free fluorescein-biotin
N[C@@H](CCCCNC(=O)CCCC[C@@H]1SC[C@@H]2NC(=O)N[C@@H]21)C(=O)O [N-biotin-L-lysine] | capable to prevent the binding of the reporter molecule, fluorescein-biotin, to streptavidin | 
O=C(O)CCCC[C@@H]1SC[C@@H]2NC(=O)N[C@@H]21 [biotin] | capable to prevent the binding of the reporter molecule, fluorescein-biotin, to streptavidin | effect of injection on free streptavidin binding sites / free fluorescein-biotin concentration (SIM MS signal at m/z 390) ([2]; FIG. 1, point 4): decrease of free streptavidin binding sites and an increase of the free fluorescein-biotin concentration
